From patent US11834453B2, “Substituted pyrimido[5,4-d]pyrimidines as HER2 inhibitors” (Array BioPharma Inc., priority 2020, dated 2023)
Where two headings read alike, the source gives them in different places.

What was measured:
[1] = biological target: ErbB2 insYVMA (HER2-YVMA, SEQ ID NO: 2) (Homo sapiens, UniProt P04626, INS775YVMA/P1170A); test: biochemical; details: ErbB2 insYVMA enzyme assay
[2] = biological target: ErbB2 WT (Homo sapiens (Human), UniProt P04626); test: ErbB enzyme assay (CisBio HTRF KinEASE-TK), Assay 2; assay type: biochemical
ErbB2 WT, sequence (P04626 23-1255): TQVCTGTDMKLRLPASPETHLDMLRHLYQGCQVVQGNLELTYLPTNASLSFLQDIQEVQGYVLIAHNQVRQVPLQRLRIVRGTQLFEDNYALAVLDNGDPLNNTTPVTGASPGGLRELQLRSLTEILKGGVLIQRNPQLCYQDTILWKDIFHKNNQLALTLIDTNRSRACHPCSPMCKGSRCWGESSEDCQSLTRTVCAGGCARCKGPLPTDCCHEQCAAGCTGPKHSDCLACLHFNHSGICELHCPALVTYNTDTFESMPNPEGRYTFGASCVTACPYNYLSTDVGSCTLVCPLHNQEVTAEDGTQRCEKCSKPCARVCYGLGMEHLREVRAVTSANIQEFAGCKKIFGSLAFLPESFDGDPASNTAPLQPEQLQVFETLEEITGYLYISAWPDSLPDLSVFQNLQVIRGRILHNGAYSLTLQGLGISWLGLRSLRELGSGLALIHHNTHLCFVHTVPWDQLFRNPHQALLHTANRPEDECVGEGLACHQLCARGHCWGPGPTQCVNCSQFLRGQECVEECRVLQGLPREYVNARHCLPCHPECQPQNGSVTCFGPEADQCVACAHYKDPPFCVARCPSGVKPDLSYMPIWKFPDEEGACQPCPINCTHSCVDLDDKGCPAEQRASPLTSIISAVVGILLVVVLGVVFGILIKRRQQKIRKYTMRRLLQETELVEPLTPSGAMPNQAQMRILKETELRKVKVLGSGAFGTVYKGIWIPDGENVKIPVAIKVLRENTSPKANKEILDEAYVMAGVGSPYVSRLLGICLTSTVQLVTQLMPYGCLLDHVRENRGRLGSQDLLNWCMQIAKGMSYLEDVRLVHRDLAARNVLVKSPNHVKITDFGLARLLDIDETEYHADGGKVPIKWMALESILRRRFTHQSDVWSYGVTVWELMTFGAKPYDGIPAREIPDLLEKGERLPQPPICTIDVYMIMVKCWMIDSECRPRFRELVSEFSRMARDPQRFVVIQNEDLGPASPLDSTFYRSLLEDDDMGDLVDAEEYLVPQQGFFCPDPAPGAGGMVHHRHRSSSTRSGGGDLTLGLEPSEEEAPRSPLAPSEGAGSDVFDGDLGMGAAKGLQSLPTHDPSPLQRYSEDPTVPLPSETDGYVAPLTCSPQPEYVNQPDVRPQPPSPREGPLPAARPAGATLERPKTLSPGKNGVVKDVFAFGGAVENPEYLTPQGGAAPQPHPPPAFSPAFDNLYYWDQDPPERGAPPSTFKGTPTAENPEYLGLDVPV
Outline: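 ErbB2 phosphorylates 250 nM biotin-TK substrate at 1 mM ATP in 25 mM HEPES pH 7.4, 10 mM MgCl2, 0.01% Triton X-100 and 2% DMSO, for 30 min at 22 °C. Product is detected by HTRF with Sa-XL665 and TK-Ab-Cryptate. Percent of control is set by DMSO-only wells and pre-quenched wells.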

[3] = biological target: EGFR (Homo sapiens (Human), UniProt P00533); test: ErbB enzyme assay (CisBio HTRF KinEASE-TK), Assay 3; assay type: biochemical
EGFR, sequence (P00533 25-1210): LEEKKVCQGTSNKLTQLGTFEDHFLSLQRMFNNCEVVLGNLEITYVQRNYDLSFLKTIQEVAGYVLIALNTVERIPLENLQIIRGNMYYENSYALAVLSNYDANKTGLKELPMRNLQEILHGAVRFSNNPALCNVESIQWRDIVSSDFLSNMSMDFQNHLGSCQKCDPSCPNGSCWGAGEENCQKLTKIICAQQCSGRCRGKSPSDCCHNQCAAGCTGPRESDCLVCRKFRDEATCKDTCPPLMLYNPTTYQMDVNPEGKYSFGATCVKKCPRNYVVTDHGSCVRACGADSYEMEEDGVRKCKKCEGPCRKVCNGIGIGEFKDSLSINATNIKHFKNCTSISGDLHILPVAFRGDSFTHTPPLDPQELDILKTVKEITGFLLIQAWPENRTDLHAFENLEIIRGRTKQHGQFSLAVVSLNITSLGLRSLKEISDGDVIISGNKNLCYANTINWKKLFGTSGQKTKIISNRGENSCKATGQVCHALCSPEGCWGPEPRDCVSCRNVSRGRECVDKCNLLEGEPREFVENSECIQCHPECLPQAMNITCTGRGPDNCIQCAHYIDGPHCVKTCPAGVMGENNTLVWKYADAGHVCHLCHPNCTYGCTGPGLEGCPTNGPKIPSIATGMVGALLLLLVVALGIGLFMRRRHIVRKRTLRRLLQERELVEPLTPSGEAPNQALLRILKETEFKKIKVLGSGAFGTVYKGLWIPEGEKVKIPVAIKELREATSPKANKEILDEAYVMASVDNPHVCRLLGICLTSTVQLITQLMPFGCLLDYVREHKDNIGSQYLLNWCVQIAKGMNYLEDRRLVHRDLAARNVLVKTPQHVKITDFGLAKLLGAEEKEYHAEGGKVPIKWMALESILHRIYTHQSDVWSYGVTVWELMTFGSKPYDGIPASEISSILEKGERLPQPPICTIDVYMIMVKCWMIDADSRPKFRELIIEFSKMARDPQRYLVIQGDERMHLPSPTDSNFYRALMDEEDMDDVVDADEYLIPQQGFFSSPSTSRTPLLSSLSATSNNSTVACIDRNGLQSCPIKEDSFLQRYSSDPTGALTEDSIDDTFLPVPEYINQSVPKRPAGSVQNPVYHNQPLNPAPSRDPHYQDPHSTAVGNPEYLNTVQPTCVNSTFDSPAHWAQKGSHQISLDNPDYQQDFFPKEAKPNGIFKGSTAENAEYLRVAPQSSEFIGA
Outline: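 Kinase + 250 nM biotin TK-substrate, 1 mM ATP, cpd (3-fold dil.), HEPES pH 7.4/10 mM MgCl2/0.01% Triton/2% DMSO; 30 min 22 °C. Quench w/ Sa-XL665 + TK-Ab-Cryptate, 1 h, HTRF. IC50 = 50 POC on 4PL fit.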

[4] = biological target: ErbB2 with Exon 20 YVMA insertion (HER2-YVMA) (Homo sapiens (Human), UniProt P04626, INS775YVMA); test: Cellular phosphorylation assay, constitutive ErbB2 phosphorylation (Y1196) in engineered NIH 3T3 cells, Assay 4; assay type: cell-based
Outline: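 Engineered NIH 3T3 cells expressing HER2-YVMA treated with compounds 1 h at 37 °C, then formaldehyde-fixed and methanol-permeabilized. pErbB2 Y1196 detected by in-cell infrared immunofluorescence, normalized to GAPDH. IC50 from the normalized curves.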

[5] = biological target: EGFR wild type (EGFR WT) (Homo sapiens (Human), UniProt P00533); test: Cellular phosphorylation assay, EGF-stimulated EGFR phosphorylation in engineered NIH 3T3 cells, Phospho-EGFR DuoSet IC ELISA, Assay 5; assay type: cell-based
EGFR wild type (EGFR WT), sequence (P00533 25-1210): as above
Procedure: NIH 3T3 cells were engineered to express EGFR wild type (EGFR WT; Assay 5, no footnote) with constructs obtained from GenScript and grown in DMEM supplemented with 10% fetal bovine serum and 15 μg/ml blasticidin. Cells were plated in 96-well plates at 20,000 cells/well and allowed to attach overnight at 37° C./5% CO2. Serially diluted compounds were added to the plates for 1 hour at 37° C./5% CO2. EGFR WT cells were stimulated with 100 ng/ml rEGF for an additional 10 minutes at 37° C./5% CO2. After compound incubation, medium was removed from the cells, which were then lysed in 100 μL/well lysis buffer according to the manufacturer's protocol (R&D Systems, DYC1095, Human Phospho-EGFR DuoSet IC ELISA). Same protocol was followed to determine the total levels of phospho-EGFR by measuring the optical density of each well using a VersaMax microplate reader. Curves were then generated and IC50 values calculated.

ErbB2 insYVMA (HER2-YVMA, SEQ ID NO: 2), sequence (P04626 with tags, fused parts or gaps INS775YVMA/P1170A limits assumed): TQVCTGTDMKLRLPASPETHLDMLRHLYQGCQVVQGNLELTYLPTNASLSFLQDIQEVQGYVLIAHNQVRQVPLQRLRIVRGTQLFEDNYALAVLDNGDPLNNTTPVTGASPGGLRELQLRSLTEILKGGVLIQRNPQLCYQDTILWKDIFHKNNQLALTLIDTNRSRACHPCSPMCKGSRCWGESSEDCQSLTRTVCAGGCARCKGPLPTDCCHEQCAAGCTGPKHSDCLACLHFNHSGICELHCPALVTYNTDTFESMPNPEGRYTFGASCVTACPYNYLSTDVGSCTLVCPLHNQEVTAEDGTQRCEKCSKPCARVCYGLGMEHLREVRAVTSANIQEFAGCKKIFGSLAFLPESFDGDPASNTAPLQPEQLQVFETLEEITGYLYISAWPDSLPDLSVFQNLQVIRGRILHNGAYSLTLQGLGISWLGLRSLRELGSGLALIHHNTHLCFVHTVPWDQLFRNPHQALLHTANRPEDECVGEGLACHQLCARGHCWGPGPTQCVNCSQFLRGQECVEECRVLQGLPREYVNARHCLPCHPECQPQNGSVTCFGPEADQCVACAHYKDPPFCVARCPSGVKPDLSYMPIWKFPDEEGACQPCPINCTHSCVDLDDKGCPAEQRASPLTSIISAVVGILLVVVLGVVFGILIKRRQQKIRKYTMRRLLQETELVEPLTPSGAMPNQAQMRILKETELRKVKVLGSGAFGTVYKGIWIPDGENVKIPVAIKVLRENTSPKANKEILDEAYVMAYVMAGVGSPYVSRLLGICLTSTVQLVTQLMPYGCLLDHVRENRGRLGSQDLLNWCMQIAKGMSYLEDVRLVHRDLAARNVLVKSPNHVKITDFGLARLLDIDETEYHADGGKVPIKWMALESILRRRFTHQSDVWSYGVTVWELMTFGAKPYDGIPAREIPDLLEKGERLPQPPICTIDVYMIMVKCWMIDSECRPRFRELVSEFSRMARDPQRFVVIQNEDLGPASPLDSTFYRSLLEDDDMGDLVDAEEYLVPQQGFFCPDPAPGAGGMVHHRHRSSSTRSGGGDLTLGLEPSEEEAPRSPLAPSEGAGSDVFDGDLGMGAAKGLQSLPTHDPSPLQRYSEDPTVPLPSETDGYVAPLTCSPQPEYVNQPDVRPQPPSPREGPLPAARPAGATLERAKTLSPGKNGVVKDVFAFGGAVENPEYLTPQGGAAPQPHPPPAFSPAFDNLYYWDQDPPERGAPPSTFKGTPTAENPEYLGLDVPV

SMILES	IC50 ([1]; read-out: Assay 1 IC50) [nM]	IC50 [2] [nM]	IC50 [3] [nM]	IC50 [4] [nM]	IC50 [5] [nM]	IC50 ([1]; Assay 1 IC50 (nM)) [nM]
CN(c1ncc2ncnc(Nc3ccc(Oc4ccn5ncnc5c4)c(Cl)c3)c2n1)[C@H]1CCOC1 [Example 133, (S)—N8-(4-([1,2,4]triazolo[1,5-a]pyridin-7-yloxy)-3-chlorophenyl)-N2-methyl-N2-(tetrahydrofuran-3-yl)pyrimido[5,4-d]pyrimidine-2,8-diamine]	10.8	26.2	5720	55.4	≥ 5000	–
Cc1cc(Nc2ncnc3cnc(N4CC5CC(C4)O5)nc23)ccc1Oc1ccn2ncnc2c1 [Example 135, N-(4-([1,2,4]triazolo[1,5-a]pyridin-7-yloxy)-3-methylphenyl)-6-(6-oxa-3-azabicyclo[3.1.1]heptan-3-yl)pyrimido[5,4-d]pyrimidin-4-amine]	26.2	45.7	≥ 10000	514	≥ 5000	–
Cc1cc(Nc2ncnc3cnc(N4CCN(C)[C@H](C)C4)nc23)ccc1Oc1ccn2ncnc2c1 [Example 136, (R)—N-(4-([1,2,4]triazolo[1,5-a]pyridin-7-yloxy)-3-methylphenyl)-6-(3,4-dimethylpiperazin-1-yl)pyrimido[5,4-d]pyrimidin-4-amine]	55.3	59.3	≥ 10000	315	≥ 5000	–
Cc1cc(Nc2ncnc3cnc(N4CCCC4=O)nc23)ccc1Oc1ccn2ncnc2c1 [Example 137, 1-(8-((4-([1,2,4]triazolo[1,5-a]pyridin-7-yloxy)-3-methylphenyl)amino)pyrimido[5,4-d]pyrimidin-2-yl)pyrrolidin-2-one]	97.7	166	≥ 10000	1080	≥ 5000	–
Cc1cc(Nc2ncnc3cnc(N=S4(=O)CCOCC4)nc23)ccc1Oc1ccc2c(c1)ncn2C [Example 138, 4-((8-((3-methyl-4-((1-methyl-1H-benzo[d]imidazol-5-yl)oxy)phenyl)amino)pyrimido[5,4-d]pyrimidin-2-yl)imino)-1,4λ^6-oxathiane 4-oxide]	32.2	33.6	4910	58.2	≥ 5000	–
Cc1cc(Nc2ncnc3cnc(N4CCCS4(=O)=O)nc23)ccc1Oc1ccc2c(c1)ncn2C [Example 139, 2-(8-((3-methyl-4-((1-methyl-1H-benzo[d]imidazol-5-yl)oxy)phenyl)amino)pyrimido[5,4-d]pyrimidin-2-yl)isothiazolidine 1,1-dioxide]	9.6	12.6	1570	6.3	≥ 5000	–
Cc1cc(Nc2ncnc3cnc(N4CC(C)CS4(=O)=O)nc23)ccc1Oc1ccc2c(c1)ncn2C (stereo not drawn) [Example 140, 4-methyl-2-(8-((3-methyl-4-((1-methyl-1H-benzo[d]imidazol-5-yl)oxy)phenyl)amino)pyrimido[5,4-d]pyrimidin-2-yl)isothiazolidine 1,1-dioxide]	21.3	20.3	6360	8.1	≥ 5000	–
CON1CCN(c2ncc3ncnc(Nc4ccc(Oc5ccc6c(c5)ncn6C)c(C)c4F)c3n2)CC1 [Example 142, N-(2-fluoro-3-methyl-4-((1-methyl-1H-benzo[d]imidazol-5-yl)oxy)phenyl)-6-(4-methoxypiperazin-1-yl)pyrimido[5,4-d]pyrimidin-4-amine 2,2,2-trifluoroacetate]	–	50.7	≥ 10000	72.7	≥ 5000	24.2
CN1CCN(c2ncc3ncnc(Nc4ccc(Oc5ccc6c(c5)ncn6C)c(Cl)c4)c3n2)CC1 [Example 143, N-(3-chloro-4-((1-methyl-1H-benzo[d]imidazol-5-yl)oxy)phenyl)-6-(4-methylpiperazin-1-yl)pyrimido[5,4-d]pyrimidin-4-amine 2,2,2-trifluoroacetate]	–	50.7	7410	28.2	≥ 5000	35.1
